Data on one compound can be found in patent publication US20150056702A1, “METHOD AND KIT FOR CULTURING STEM CELLS” (China Medical University, priority 2013, published 2015).

Assay [1] relates to ES cells. The assay can be described thus: Examination of cell survival (MTT assay). The assay is classed as cell-based, mouse. The settings on record: for relative cell survival rate: control = 100. The method, then:
The following steps were conducted in order to culture ES cells: • (1) preparing a stem cell medium: DMEM+15% heat-inactivated FBS+NEAA (0.1 mM)+L-glutamine (2 mM)+β-mercaptoethanol (0.2 mM); • (2) preparing a BP-containing solution: dissolving BP into DMSO to form a BP-containing solution (100 mg/ml), and storing the solution at −20° C.; • (3) adding different amounts of the BP-containing solution in step (2) into the stem cell medium in step (1) to form different BP-containing mediums, wherein the amount of BP were about 5, 10, 20 or 40 μg per milliliter of the stem cell medium respectively (i.e. the experimental group mediums: BP5, BP10, BP20 and BP40); and • (4) using the BP-containing medium of in step (3) to culture a ES cell (retrieved from the embryos in the blastula stage of 129sv/J mice) at 37° C., 5% CO2 and 95% humidity on the feeder cells provided by Example 1.
In this example, 3-(4,5-dimethylthiazol-2-yl)-2,5-diphenyl tetrazolium bromide (MTT) was used to determine if the cell survival rate of stem cells will be influenced when BP was served as a substitute for LIF.
MTT is a water-soluble tetrazolium salt which can react in the mitochondrial respiratory chain in living cells, to metabolize and reduce the tetrazolium bromide shown in the structure of MTT and to form an water-insoluble purple crystal formazan under the reaction of succinate dehydrogenase (SDH) and cytochrome c (cyt c). The amount of the produced crystal is directly proportional to the number of living cells (because the SDH will disappear from dead cells and the MTT cannot be reduced). Furthermore, mitochondrium is an organelle in cells most sensitive to the environment, and thus, the MTT assay could serve as a marker of the survival rate of cells treated by a drug.
An experimental group medium (BP5, BP10, BP20 or BP40) and a control group medium (without BP) were added respectively into a 96-well micro-culture plate to culture ES cells with an initial density of 5×10^3 per well for 24 to 72 hours. Then, 10 μl of 0.5 mg/ml MTT (Sigma) was added into each well and the cells were incubated in an incubator at 37° C. and 5% CO2 for 2 to 4 hours. The medium was removed, and 100 μl of DMSO was added into each well and maintained at 37° C. for 10 minutes. The absorbances of the samples were measured at a wavelength of 570 nm to obtain the data of the experimental group (with BP) and control group (without BP). The absorbance of control group was served as a reference to calculate the relative cell survival rate of each experimental group.

Assay [2] relates to ES cells. The assay can be described thus: Embryoid body formation and differentiation of ES cells. The assay is classed as cell-based, mouse. The settings on record: BP10 medium, ES cells passaged 3 times, Tuj1, α-SMA, Gata4 staining. The protocol: The embryoid body formation and differentiation were also observed by immunofluorescence staining to observe the effect of BP on maintaining the pluripotency of ES cells.
An experimental group medium (BP10) was used to culture ES cells with an initial density of 1×10^4 per well in a 6-well culture dish. The ES cells were passaged 3 times and incubated for another 2 to 3 days in the Ultra Low Cluster Plate (Costar) containing the embryoid body formation medium [DMEM+20% FBS+β-mercaptoethanol (1 mM)+1% L-glutamine+1% NEAA], and then the embryoid body formation was observed. The embryoid bodies were placed into another 24-well culture dish (5 to 6 embryoid bodies/well) and incubated for another 3 days. Next, immunofluorescence staining was conducted to detect cells with an anti-Tuj1 antibody (ectoderm marker), an anti-α-SMA antibody (mesoderm marker) and an anti-Gata4 antibody (endoderm marker).

SMILES strings stand for the structures.

As for `CCCC=C1OC(=O)c2ccccc21` [BP, n-butylidenephthalide], the “relative cell survival rate” value in the assay with ES cells [1] (BP5 medium (about 5 μg BP/ml), 24 hours) was 95.212; in the assay with ES cells [1] (BP5 medium (about 5 μg BP/ml), 72 hours), 99.816; with ES cells [1] (BP10 medium (about 10 μg BP/ml), 24 hours) it was 98.092; in the assay on ES cells [1] (BP10 medium (about 10 μg BP/ml), 72 hours) it was 93.848; in the assay with ES cells [1] (BP20 medium (about 20 μg BP/ml), 24 hours), 95.076; in the assay with ES cells [1] (BP20 medium (about 20 μg BP/ml), 72 hours) it was 92.399. For the same compound, the “relative cell survival rate” value in the assay with ES cells [1] (BP40 medium (about 40 μg BP/ml), 24 hours) was determined as 97.550; in the assay with ES cells [1] (BP40 medium (about 40 μg BP/ml), 72 hours) it was 90.128. For the same compound, in the assay on ES cells [1] (addition of BP into the ES cell medium, result in words), the “survival rate of stem cells” value was “will not affect the survival rate of stem cells”. Further, the “embryoid body formation and differentiation” value with ES cells [2] is “form an embryoid body and further differentiate into all three germ layer cells”.
